Counter-ions that a name gives are not always drawn.

The test system of one experiment is hPSC-SCs.
Conditions: not given
For the compound `CCN1C[C@]2(COC)CC[C@H](O)[C@]34C1[C@@](O)([C@@H](OC)[C@H]23)[C@@]1(O)C[C@H](OC)[C@H]2C[C@@H]4[C@@H]1[C@H]2OC` [Delsoline], the z.score.t was found to be 1.566.
The same measure, in the same setting: with `CCN1C[C@]2(C)CC[C@H](OC)[C@@]34C1[C@]1(OCO[C@@]15C[C@H](OC)[C@H]1C[C@]3(O)[C@@H]5[C@H]1OC)[C@@H](OC(C)=O)[C@H]24` [Deltaline] the figure was 0.1693; with `CN(CCCCCCCCCCN(C)C(=O)Oc1cccc([N+](C)(C)C)c1)C(=O)Oc1cccc([N+](C)(C)C)c1` [Demecarium bromide], 1.211; with `C[C@]12CC[C@H]3[C@@H](CCC4=CC(=O)CC[C@@]43C)[C@@H]1CC[C@@H]2C(=O)CO` [Deoxycorticosterone], −1.303.
With `C[C@]12CC[C@H](O)C[C@H]1CC[C@@H]1[C@@H]2CC[C@]2(C)[C@@H](C3=CC(=O)OC3)CC[C@]12O` [Digitoxigenin], the z.score.t is given as −2.008.
The same measure, in the same setting: with `C[C@H]1O[C@@H](O[C@H]2[C@@H](O)C[C@H](O[C@H]3[C@@H](O)C[C@H](O[C@H]4CC[C@@]5(C)[C@H](CC[C@@H]6[C@@H]5C[C@@H](O)[C@]5(C)[C@@H](C7=CC(=O)OC7)CC[C@]65O)C4)O[C@@H]3C)O[C@@H]2C)C[C@H](O)[C@@H]1O` [Digoxin] the figure was −2.04.

The same experiment, now with this note: HTS viability of hPSC-SCs in the presence of 30 mM glucose; Prestwick library; Table S4.
For `CN(C)[C@@H]1C(O)=C(C(N)=O)C(=O)[C@@]2(O)C(O)=C3C(=O)c4c(O)ccc(Cl)c4[C@@H](O)[C@H]3C[C@@H]12` [Demeclocycline hydrochloride], the z.score.t amounted to 0.4318.
On the same count and under the same terms, with `CC[N+](CC)(CC(=O)Nc1c(C)cccc1C)Cc1ccccc1` [Denatonium benzoate] the figure was −1.472.
As to `Cc1cc(N)c2ccccc2[n+]1CCCCCCCCCC[n+]1c(C)cc(N)c2ccccc21` [Dequalinium dichloride], the z.score.t is reported as 0.5046.
Turning to `CNCCCN1c2ccccc2CCc2ccccc21` [Desipramine hydrochloride], the z.score.t is on record as −1.014.
The same measure, in the same setting: with `CC(=O)OCC(=O)[C@@]1(O)[C@H](C)C[C@H]2[C@@H]3CCC4=CC(=O)C=C[C@]4(C)[C@@]3(F)[C@@H](O)C[C@@]21C` [Dexamethasone acetate] the figure was 0.4486.
Same read-out and setting: with `CC1=NS(=O)(=O)c2cc(Cl)ccc2N1` [Diazoxide] the figure was 0.4626.
The same measure, in the same setting: with `CCCCOc1cc(C(=O)NCCN(CC)CC)c2ccccc2n1` [Dibucaine] the figure was −1.214; with `NS(=O)(=O)c1cc(Cl)c(Cl)c(S(N)(=O)=O)c1` [Dichlorphenamide], −0.8317.
For `O=C(O)Cc1ccccc1Nc1c(Cl)cccc1Cl` [Diclofenac sodium], the z.score.t was determined as 0.563.
Same read-out and setting: with `Cc1onc(-c2c(Cl)cccc2Cl)c1C(=O)N[C@@H]1C(=O)N2[C@@H]1SC(C)(C)[C@@H]2C(=O)O` [Dicloxacillin sodium salt] the figure was 1.942; with `O=c1oc2ccccc2c(O)c1Cc1c(O)c2ccccc2oc1=O` [Dicumarol], −0.3242; with `CCN(CC)CCOC(=O)C1(C2CCCCC2)CCCCC1` [Dicyclomine hydrochloride], −0.2865.
Still for that read-out and setting: with `O=c1[nH]cnc2c1ncn2[C@H]1CC[C@@H](CO)O1` [Didanosine] the figure was −0.07933.
Regarding `C/C=C(/C(=C/C)c1ccc(O)cc1)c1ccc(O)cc1` [Dienestrol], the z.score.t is −1.123.
Same read-out and setting: with `CCN(CC)C(=O)N1CCN(C)CC1` [Diethylcarbamazine citrate] the figure was 0.378; with `CC/C(=C(/CC)c1ccc(O)cc1)c1ccc(O)cc1` [Diethylstilbestrol], 1.624.
Same read-out and setting: with `CC(=O)OCC(=O)[C@@]1(OC(C)=O)[C@@H](C)C[C@H]2[C@@H]3C[C@H](F)C4=CC(=O)C=C[C@]4(C)[C@@]3(F)[C@@H](O)C[C@@]21C` [Diflorasone Diacetate] the figure was 1.72.
On the same count and under the same terms, with `O=C(O)c1cc(-c2ccc(F)cc2F)ccc1O` [Diflunisal] the figure was 0.7162; with `C[C@]12CC[C@H](O)C[C@H]1CC[C@@H]1[C@@H]2C[C@@H](O)[C@]2(C)[C@@H](C3=CC(=O)OC3)CC[C@]12O` [Digoxigenin], −2.387.
Consider `CC(C)[C@@]1(NC(=O)[C@@H]2C[C@@H]3c4cccc5[nH]cc(c45)C[C@H]3N(C)C2)O[C@@]2(O)[C@@H]3CCCN3C(=O)[C@H](Cc3ccccc3)N2C1=O` [Dihydroergocristine mesylate], for which the z.score.t is recorded as −0.3319.
As for `CN[C@@H]1[C@H](O[C@H]2[C@H](O[C@H]3[C@H](O)[C@@H](O)[C@H](NC(=N)N)[C@@H](O)[C@@H]3NC(=N)N)O[C@@H](C)[C@]2(O)CO)O[C@@H](CO)[C@H](O)[C@H]1O` [Dihydrostreptomycin sulfate], the z.score.t was −0.359.
Same read-out and setting: with `COc1cc(C(=O)OCCCN2CCCN(CCCOC(=O)c3cc(OC)c(OC)c(OC)c3)CC2)cc(OC)c1OC` [Dilazep dihydrochloride] the figure was −1.444.
Still for that read-out and setting: with `CN(C(=O)C(Cl)Cl)c1ccc(OC(=O)c2ccco2)cc1` [Diloxanide furoate] the figure was 1.069.
Still for that read-out and setting: with `COc1ccc([C@@H]2Sc3ccccc3N(CCN(C)C)C(=O)[C@@H]2OC(C)=O)cc1` [Diltiazem hydrochloride] the figure was 0.6906; with `CN(C)CCCSC(=N)N` [Dimaprit dihydrochloride], 1.918.
For `CN(C)CCOC(c1ccccc1)c1ccccc1.Cn1c(=O)c2[nH]c(Cl)nc2n(C)c1=O` [Dimenhydrinate], the z.score.t was 0.08508.
Still for that read-out and setting: with `CC1(C)OC(=O)NC1=O` [Dimethadione] the figure was −0.03362; with `CCCCc1cc2ccccc2c(OCCN(C)C)n1` [Dimethisoquin hydrochloride], 0.04918.
`CCCCC[C@H](O)/C=C/[C@@H]1[C@@H](C/C=C\CCCC(=O)O)[C@@H](O)C[C@H]1O` [Dinoprost trometamol]: the z.score.t is given as 1.789.
As for `COc1ccc(C(=O)c2ccccc2O)c(O)c1` [Dioxybenzone], the z.score.t was −0.2359.
For `O=C(Nc1ccccc1)OCC(CN1CCCCC1)OC(=O)Nc1ccccc1` (stereo not drawn) [Diperodon hydrochloride], the z.score.t is given as −0.7776.
Consider `C[N+]1(C)CCC(=C(c2ccccc2)c2ccccc2)CC1` [Diphemanil methylsulfate], for which the z.score.t is on record as 0.05523.
Still for that read-out and setting: with `CN(C)CCOC(c1ccccc1)c1ccccc1` [Diphenhydramine hydrochloride] the figure was −0.5689; with `OC(CCCN1CCCCC1)(c1ccccc1)c1ccccc1` [Diphenidol hydrochloride], 0.9906.
Still for that read-out and setting: with `CN1CCC(OC(c2ccccc2)c2ccccc2)CC1` [Diphenylpyraline hydrochloride] the figure was −0.7376; with `CNCC(O)c1ccc(OC(=O)C(C)(C)C)c(OC(=O)C(C)(C)C)c1` (stereo not drawn) [Dipivefrin hydrochloride], −1.319.
The same measure, in the same setting: with `Cn1c(=O)c2c(ncn2CC(O)CO)n(C)c1=O` (stereo not drawn) [Diprophylline] the figure was 0.7415; with `OCCN(CCO)c1nc(N2CCCCC2)c2nc(N(CCO)CCO)nc(N3CCCCC3)c2n1` [Dipyridamole], −0.8392; with `Cc1c(N(C)CS(=O)(=O)[O-])c(=O)n(-c2ccccc2)n1C.[Na+]` [Dipyrone], −1.008.

The values above are taken from US20260053861A1, “CELL COMPOSITIONS AND METHODS OF USING THE SAME” (THE REGENTS OF THE UNIVERSITY OF CALIFORNIA, priority 2022, published 2026).
